Test system: Eschericia coli (E. coli) strain ATCC25922
Test: Standard microdilution assay, MIC against E. coli ATCC25922
Assay type: cell-based
Conditions: Escherichia coli; E. coli strain ATCC25922, standard microdilution assay; cutoff 16 micrograms/mL; read-out: MIC E. Coli
Method: The in vitro activity of the compounds of the present invention can be determined. Antimicrobial testing is typically performed to determine the minimum inhibitory concentration (MIC). Minimum inhibitory concentrations (MICs) are determined by the microdilution method in a final volume of 100 μl according to protocols outlined by The Clinical and Laboratory Standards Institute (CLSI). Performance standards for reference strains are assessed within the same experimental design to maintain quality control. See, for example, Clinical Laboratory Standards Institute: Methods for dilution antimicrobial susceptibility tests for bacteria that grow aerobically M7-A8. Approved Standard-Eighth Edition. Wayne, Pa.: CLSI; December 2008; and Clinical Laboratory Standards Institute: Performance Standards for Antimicrobial Susceptibility Testing M100-S20; Approved Standard-Twentieth Edition. Wayne, Pa.: CLSI; June 2010.
The compounds of the present invention were tested for antimicrobial activity. The Compounds 1-582 were run against Eschericia coli (E. coli) strain ATCC25922 and Compounds 320-582 were run against Staphylococcus aureus (S. aureus) 11540 strain using a standard microdilution assay to determine minimum inhibitory concentrations (MICs). […] It will be recognized by one skilled in the art that the compounds can be assessed against other bacterial organisms and that the presentation of data for activity against Eschericia coli and Staphylococcus aureus are illustrative and in no way is intended to limit the scope of the present invention. The compounds of the present invention can be assayed against a range of other microorganisms depending upon the performance activity desired to be gathered. Furthermore, the “+” and “−” representation and the selection of a cutoff value of 16 micrograms/mL is also illustrative and in no way is intended to limit the scope of the present invention.

| MIC [µg/mL] | SMILES |
| --- | --- |
| < 16 | C=CC[C@@H](NCCCNC(=N)N)c1ccc(-n2cc3cc(-c4cc(CCC[C@H](C)N)cc(SC(F)(F)F)c4)[nH]c3nc2=O)cc1 [Compound 1] |
| < 16 | C[C@H](N)CCCc1cc(Cl)c(F)c(-c2cc3cn(-c4ccc([C@@H](CCN)NCCCNC(=N)N)cc4)c(=O)nc3[nH]2)c1 [Compound 2] |
| < 16 | C=CC[C@@H](NCCCNC(=N)N)c1ccc(-n2cc3cc(-c4cc(CCC[C@H](C)N)cc(Cl)c4F)[nH]c3nc2=O)cc1 [Compound 3] |
| < 16 | C=CC[C@@H](NCCCNC(=N)N)c1ccc(-n2cc3cc(-c4cc(CCC[C@H](C)N)cc(C(F)(F)F)c4)[nH]c3nc2=O)cc1 [Compound 4] |
| < 16 | COc1ccc([C@H](NCCCNC(=N)N)c2ccc(-n3cc4cc(-c5cc(CCC[C@H](C)N)cc(Cl)c5F)[nH]c4nc3=O)cc2)cc1 [Compound 5] |
| < 16 | C[C@H](N)CCCc1cc(-c2cc3cn(-c4ccc([C@@H](CCN)NCCCNC(=N)N)cc4)c(=O)nc3[nH]2)cc(C(F)(F)F)c1 [Compound 6] |
| < 16 | C[C@H](N)CCCc1cc(SC(F)(F)F)cc(-c2cc3cn(-c4ccc([C@@H](CCN)NCCCNC(=N)N)cc4)c(=O)nc3[nH]2)c1 [Compound 7] |
| > 16 | COc1ccc([C@H](c2ccc(SC)cc2)c2ccc(-n3cc4cc(-c5cc(CCC[C@H](C)N)cc(SC(F)(F)F)c5)[nH]c4nc3=O)cc2)cc1 [Compound 8] |
| > 16 | COc1ccc([C@@H](c2ccc(SC)cc2)c2ccc(-n3cc4cc(-c5cc(CCC[C@H](C)N)cc(SC(F)(F)F)c5)[nH]c4nc3=O)cc2)cc1 [Compound 9] |
| < 16 | C[C@H](N)CCCc1cc(-c2cc3cn(-c4ccc([C@H](C)NCCCNC(=N)N)cc4)c(=O)nc3[nH]2)c(F)cc1Cl [Compound 10] |
| < 16 | C=CC[C@H](NCCCNC(=N)N)c1ccc(-n2cc3cc(-c4cc(CCC[C@H](C)N)cc(SC(F)(F)F)c4)[nH]c3nc2=O)cc1 [Compound 11] |
| < 16 | C[C@H](N)CCCc1cc(Cl)c(F)c(-c2cc3cn(-c4ccc([C@@H](NCCCNC(=N)N)C(=O)N5CCNCC5)cc4)c(=O)nc3[nH]2)c1 [Compound 12] |
| < 16 | C[C@H](N)CCCc1cc(-c2cc3cn(-c4ccc([C@@H](NCCCNC(=N)N)C(=O)N5CCNCC5)cc4)c(=O)nc3[nH]2)cc(C(F)(F)F)c1 [Compound 13] |
| < 16 | C[C@H](N)CCCc1cc(SC(F)(F)F)cc(-c2cc3cn(-c4ccc([C@@H](NCCCNC(=N)N)C(=O)N5CCNCC5)cc4)c(=O)nc3[nH]2)c1 [Compound 14] |
| < 16 | C[C@H](N)CCCc1cc(Cl)c(F)c(-c2cc3cn(-c4ccc([C@H](CCO)NCCCNC(=N)N)cc4)c(=O)nc3[nH]2)c1 [Compound 15] |
| < 16 | C[C@H](N)CCCc1cc(-c2cc3cn(-c4ccc([C@H](CCO)NCCCNC(=N)N)cc4)c(=O)nc3[nH]2)cc(C(F)(F)F)c1 [Compound 16] |
| < 16 | COc1ccc([C@H](NCCCNC(=N)N)c2ccc(-n3cc4cc(-c5cc(CCC[C@H](C)N)cc(C(F)(F)F)c5)[nH]c4nc3=O)cc2)cc1 [Compound 17] |
| < 16 | C[C@H](N)CCCc1cc(-c2cc3cn(-c4ccc([C@H](CCN)NCCCNC(=N)N)cc4)c(=O)nc3[nH]2)cc(C(F)(F)F)c1 [Compound 18] |
| < 16 | C[C@H](N)CCCc1cc(Cl)c(F)c(-c2cc3cn(-c4ccc([C@H](CCN)NCCCNC(=N)N)cc4)c(=O)nc3[nH]2)c1 [Compound 19] |
| < 16 | C[C@H](NCCCNC(=N)N)c1ccc(-n2cc3cc(-c4cc([C@H](O)CC[C@@H](C)N)cc(C(F)(F)F)c4)[nH]c3nc2=O)cc1 [Compound 20] |
| < 16 | C[C@H](N)CC[C@@H](O)c1cc(-c2cc3cn(-c4ccc([C@H](C)NCCCNC(=N)N)cc4)c(=O)nc3[nH]2)cc(C(F)(F)F)c1 [Compound 21] |
| < 16 | CC(N)CC[C@@H](O)c1cc(-c2cc3cn(-c4ccc([C@H](C)NCCCNC(=N)N)cc4)c(=O)nc3[nH]2)cc(C(F)(F)F)c1 (some centres unmarked) [Compound 22] |
| < 16 | C[C@H](N)CCCc1cc(SC(F)(F)F)cc(-c2cc3cn(-c4ccc([C@H](CCN)NCCCNC(=N)N)cc4)c(=O)nc3[nH]2)c1 [Compound 23] |
| < 16 | C[C@H](N)CCCc1cc(SC(F)(F)F)cc(-c2cc3cn(-c4ccc([C@H](CCO)NCCCNC(=N)N)cc4)c(=O)nc3[nH]2)c1 [Compound 24] |
| < 16 | C[C@H](N)CCCc1cc(SC(F)(F)F)cc(-c2cc3cn(-c4ccc([C@@H](NCCCNC(=N)N)c5ccc(O)cc5)cc4)c(=O)nc3[nH]2)c1 [Compound 25] |

| MIC [µg/mL] | SMILES |
| --- | --- |
| < 16 | C[C@H](N)CCCc1cc(Cl)c(F)c(-c2cc3cn(-c4ccc([C@@H](NCCCNC(=N)N)c5ccc(O)cc5)cc4)c(=O)nc3[nH]2)c1 [Compound 26] |
| < 16 | C[C@H](N)CCCc1cc(Cl)cc(-c2cc3cn(-c4ccc([C@H](C)NCCCNC(=N)N)cc4)c(=O)nc3[nH]2)c1 [Compound 27] |
| < 16 | COCC[C@H](NCCCNC(=N)N)c1ccc(-n2cc3cc(-c4cc(CCC[C@H](C)N)cc(C(F)(F)F)c4)[nH]c3nc2=O)cc1 [Compound 28] |
| < 16 | COCC[C@H](NCCCNC(=N)N)c1ccc(-n2cc3cc(-c4cc(CCC[C@H](C)N)cc(Cl)c4F)[nH]c3nc2=O)cc1 [Compound 29] |
| < 16 | COCC[C@H](NCCCNC(=N)N)c1ccc(-n2cc3cc(-c4cc(CCC[C@H](C)N)cc(SC(F)(F)F)c4)[nH]c3nc2=O)cc1 [Compound 30] |
| < 16 | C[C@H](NCCCNC(=N)N)c1ccc(-n2cc3cc(-c4cc(CCC[C@@H](N)CO)cc(SC(F)(F)F)c4)[nH]c3nc2=O)cc1 [Compound 31] |
| < 16 | C[C@H](N)CCCc1cc(Cl)c(F)c(-c2cc3cn(-c4ccc([C@@H](NCCCNC(=N)N)C(N)=O)cc4)c(=O)nc3[nH]2)c1 [Compound 32] |
| < 16 | Cc1cc(F)c(-c2cc3cn(-c4ccc([C@H](C)NCCCNC(=N)N)cc4)c(=O)nc3[nH]2)cc1CCC[C@H](C)N [Compound 33] |
| < 16 | C[C@H](N)CC[C@@H](O)c1cc(OC(F)(F)F)cc(-c2cc3cn(-c4ccc([C@H](C)NCCCNC(=N)N)cc4)c(=O)nc3[nH]2)c1 [Compound 34] |
| < 16 | N=C(N)NCCCNCc1ccc(-n2cc3cc(-c4cc(OC(F)(F)F)cc([C@H]5C[C@H](N)CCO5)c4)[nH]c3nc2=O)cc1 [Compound 35] |
| < 16 | C[C@H](NCCCNC(=N)N)c1ccc(-n2cc3cc(-c4cc(OC(F)(F)F)cc([C@H]5C[C@H](N)CCO5)c4)[nH]c3nc2=O)cc1 [Compound 36] |
| < 16 | N=C(N)NCCCNCc1ccc(-n2cc3cc(-c4cc(C[C@H]5C[C@H](N)CCO5)cc(OC(F)(F)F)c4)[nH]c3nc2=O)cc1 [Compound 37] |
| < 16 | C[C@H](NCCCNC(=N)N)c1ccc(-n2cc3cc(-c4cc(C[C@H]5C[C@H](N)CCO5)cc(OC(F)(F)F)c4)[nH]c3nc2=O)cc1 [Compound 38] |
| < 16 | C[C@H](N)CCCc1cc(Cl)c(F)c(-c2cc3cn(-c4ccc([C@@H](NCCCNC(=N)N)c5ccc(S(C)(=O)=O)cc5)cc4)c(=O)nc3[nH]2)c1 [Compound 39] |
| < 16 | C[C@H](N)CCCc1cc(SC(F)(F)F)cc(-c2cc3cn(-c4ccc([C@@H](NCCCNC(=N)N)c5ccc(S(C)(=O)=O)cc5)cc4)c(=O)nc3[nH]2)c1 [Compound 40] |
| < 16 | COc1ccc(Cn2cc(C[C@H](NCCCNC(=N)N)c3ccc(-n4cc5cc(-c6cc(CCC[C@H](C)N)cc(Cl)c6F)[nH]c5nc4=O)cc3)nn2)cc1 [Compound 41] |
| < 16 | COc1ccc(Cn2cc(C[C@H](NCCCNC(=N)N)c3ccc(-n4cc5cc(-c6cc(CCC[C@H](C)N)cc(C(F)(F)F)c6)[nH]c5nc4=O)cc3)nn2)cc1 [Compound 42] |
| < 16 | COc1ccc(Cn2cc(C[C@H](NCCCNC(=N)N)c3ccc(-n4cc5cc(-c6cc(CCC[C@H](C)N)cc(SC(F)(F)F)c6)[nH]c5nc4=O)cc3)nn2)cc1 [Compound 43] |
| < 16 | C[C@H](N)CCCc1cc(Cl)c(F)c(-c2cc3cn(-c4ccc([C@@H](CO)NCCCNC(=N)N)cc4)c(=O)nc3[nH]2)c1 [Compound 44] |
| < 16 | C[C@H](N)CCCc1cc(SC(F)(F)F)cc(-c2cc3cn(-c4ccc([C@@H](CO)NCCCNC(=N)N)cc4)c(=O)nc3[nH]2)c1 [Compound 45] |
| < 16 | C[C@H](N)CCCc1cc(Cl)c(F)c(-c2cc3cn(-c4ccc([C@H](Cc5c[nH]nn5)NCCCNC(=N)N)cc4)c(=O)nc3[nH]2)c1 [Compound 46] |
| < 16 | C[C@H](N)CCCc1cc(-c2cc3cn(-c4ccc([C@H](Cc5c[nH]nn5)NCCCNC(=N)N)cc4)c(=O)nc3[nH]2)cc(C(F)(F)F)c1 [Compound 47] |
| < 16 | C[C@H](N)CCCc1cc(SC(F)(F)F)cc(-c2cc3cn(-c4ccc([C@H](Cc5c[nH]nn5)NCCCNC(=N)N)cc4)c(=O)nc3[nH]2)c1 [Compound 48] |
| < 16 | N=C(N)NCCCNCc1ccc(-n2cc3cc(-c4ccc(C(=O)NCc5csc(N6CCOCC6)n5)cc4)[nH]c3nc2=O)cc1 [Compound 49] |
| < 16 | N=C(N)NCCCNCc1ccc(-n2cc3cc(-c4ccc(/C=C/C5CN(C(=N)N)C5)cc4)[nH]c3nc2=O)cc1 [Compound 50] |

From US10815238B2, “Antimicrobial compounds and methods of making and using the same” (BIOVERSYS AG, priority 2013, dated 2020)
